Laboratory results from patent publication US11046680B1, “Heteroaryl-substituted triazoles as APJ receptor agonists” (priority 2016, dated 2021).

Molecular target: human APJ receptor (Homo sapiens (Human), UniProt P35414)
Test: biochemical
Type: biochemical
Conditions: [35S]GTPγS binding, CHO membranes expressing human APJ receptor; read-out: Activity hAPJ SPA EC50 IP
Summary of the method: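 GTPγS binding on membranes from CHO cells stably expressing FLAG-tagged human APJ, with optimized GDP, MgCl2 and NaCl; incubated 90 min at RT before imaging read-out.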

Sequence of human APJ receptor (P35414 whole entry): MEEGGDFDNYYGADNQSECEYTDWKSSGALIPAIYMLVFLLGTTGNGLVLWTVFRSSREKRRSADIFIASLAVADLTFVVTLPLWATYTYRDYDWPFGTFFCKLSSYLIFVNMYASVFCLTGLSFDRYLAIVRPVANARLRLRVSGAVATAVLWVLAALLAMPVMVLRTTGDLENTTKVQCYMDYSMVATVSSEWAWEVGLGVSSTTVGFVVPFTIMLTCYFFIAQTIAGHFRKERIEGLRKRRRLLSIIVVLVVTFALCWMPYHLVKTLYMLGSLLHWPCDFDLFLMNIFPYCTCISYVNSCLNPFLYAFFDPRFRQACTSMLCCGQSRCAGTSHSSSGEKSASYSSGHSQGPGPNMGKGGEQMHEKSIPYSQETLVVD

Row | Compound | EC50 [nM]
1 | COc1cccc(OC)c1-n1c(NS(=O)(=O)[C@@H](C)[C@H](OC)c2ncc(C)cn2)nnc1-c1cscn1 [Example 342.0, (1R,2S)-N-(4-(2,6-dimethoxyphenyl)-5-(1,3-thiazol-4-yl)-4H-1,2,4-triazol-3-yl)-1-methoxy-1-(5-methyl-2-pyrimidinyl)-2-propanesulfonamide] | 0.5
2 | COc1cccc(OC)c1-n1c(NS(=O)(=O)[C@@H](C)[C@H](OC)c2ncc(C)cn2)nnc1-c1nn(C)c2ccccc12 [Example 436.0, (1R,2S)-N-(4-(2,6-dimethoxyphenyl)-5-(1-methyl-1H-indazol-3-yl)-4H-1,2,4-triazol-3-yl)-1-methoxy-1-(5-methylpyrimidin-2-yl)propane-2-sulfonamide] | 0.81
3 | COc1cccc(OC)c1-n1c(NS(=O)(=O)[C@@H](C)[C@H](C)c2ncc(F)cn2)nnc1-c1cnn2c1CCC2 [Example 479.0, (2S,3R)-N-(5-(5,6-dihydro-4H-pyrrolo[1,2-b]pyrazol-3-yl)-4-(2,6-dimethoxyphenyl)-4H-1,2,4-triazol-3-yl)-3-(5-fluoropyrimidin-2-yl)butane-2-sulfonamide] | 0.56
4 | COc1ncnc(OC)c1-n1c(NS(=O)(=O)[C@@H](C)[C@H](C)c2ncc(Cl)cn2)nnc1-c1n[nH]c2ccccc12 [Example 426.0, (2S,3R)-3-(5-chloropyrimidin-2-yl)-N-(4-(4,6-dimethoxypyrimidin-5-yl)-5-(1H-indazol-3-yl)-4H-1,2,4-triazol-3-yl)butane-2-sulfonamide] | 14
5 | COc1cccc(OC)c1-n1c(NS(=O)(=O)[C@@H]2CCCN(c3ncc(F)cn3)C2)nnc1-c1ccn(C)n1 (single isomer, unassigned) [Example 261.0, (3R)-N-(4-(2,6-dimethoxyphenyl)-5-(1-methyl-1H-pyrazol-3-yl)-4H-1,2,4-triazol-3-yl)-1-(5-fluoro-2-pyrimidinyl)-3-piperidinesulfonamide or (3S)-N-(4-(2,6-dimethoxyphenyl)-5-(1-methyl-1H-pyrazol-3-yl)-4H-1,2,4-triazol-3-yl)-1-(5-fluoro-2-pyrimidinyl)-3-piperidinesulfonamide] | 190
6 | CCO[C@H](c1ncc(Cl)cn1)[C@H](C)S(=O)(=O)Nc1nnc(-c2cc(C)n[nH]2)n1-c1c(OC)cccc1OC [Example 392.0, (1R,2S)-1-(5-Chloropyrimidin-2-yl)-N-(4-(2,6-dimethoxyphenyl)-5-(3-methyl-1H-pyrazol-5-yl)-4H-1,2,4-triazol-3-yl)-1-ethoxypropane-2-sulfonamide] | 1
7 | COc1cccc(OC)c1-n1c(NS(=O)(=O)[C@H](C)Cc2ncc(F)cn2)nnc1-c1nc(C(C)C)cs1 [Example 156.0] | 0.32
8 | CCO[C@@H](c1ncc(Cl)cn1)[C@H](C)S(=O)(=O)Nc1nnc(-c2ccn(C)n2)n1-c1c(OC)cccc1OC (single isomer, unassigned) [Example 353.0, (1S,2S)-1-(5-chloropyrimidin-2-yl)-N-(4-(2,6-dimethoxyphenyl)-5-(1-methyl-1H-pyrazol-3-yl)-4H-1,2,4-triazol-3-yl)-1-ethoxypropane-2-sulfonamide or (1R,2R)-1-(5-chloropyrimidin-2-yl)-N-(4-(2,6-dimethoxyphenyl)-5-(1-methyl-1H-pyrazol-3-yl)-4H-1,2,4-triazol-3-yl)-1-ethoxypropane-2-sulfonamide] | 0.22
9 | COc1cccc(OC)c1-n1c(NS(=O)(=O)[C@@H](C)[C@H](C)c2ncc(Cl)cn2)nnc1-c1n[nH]c2c1CCCC2 [Example 438.0, (2S,3R)-3-(5-chloropyrimidin-2-yl)-N-(4-(2,6-dimethoxyphenyl)-5-(4,5,6,7-tetrahydro-1H-indazol-3-yl)-4H-1,2,4-triazol-3-yl)butane-2-sulfonamide] | 9.1
10 | COC[C@H](C)n1c(NS(=O)(=O)[C@@H](C)[C@H](C)c2ncc(Cl)cn2)nnc1-c1ccn(C)n1 [Example 533.0, (2S,3R)-3-(5-chloro-2-pyrimidinyl)-N-(4-((2S)-1-methoxy-2-propanyl)-5-(1-methyl-1H-pyrazol-3-yl)-4H-1,2,4-triazol-3-yl)-2-butanesulfonamide] | 110
